From patent publication US6846934B2, “Photochromic diarylethene substituted with isoxazole group” (Korea Research Institute of Chemical Technology, priority 2001, dated 2005)

What was measured:
[1] = Dispersability of diarylethene compounds in polymer solution (photochromic thin film composition); type: physicochemical; set-up: key: ◯ = clear solution at RT; Δ = medium solubility; X = insoluble, phase separation and unclear solution; conditions: 10 wt. % diarylethene, chloroform + trichloroethylene, room temperature
Source text: Solubilities of diarylethene compounds of the present invention and known diarylethene compounds were compared by dispersing in polycarbonate (PC) solution or fluorinated polyethylene.
Compared diarylethene compounds are 1-(6′-(5-phenylisoxazol) 2′-methylbenzo[b]thiophen-3′-yl)-2-(2″-methylbenzo[b]thiophen-3′-yl)hexafluorocyclopentene (PIMBTF6) prepared in Example 4 and 1,2-bis(2-methylbenzo[b]thiophen-3′-yl)hexafluorocyclopentene (BTF6) and 1-(6′-acetyl-2′-methylbenzo[b]thiophen-3′-yl)-2-(2″-methylbenzo[b]thiophen-3′-yl)hexafluorocyclopentene (AMBTF6) which are disclosed. Each thin film composition was prepared by dissolving 0.03 g (10 wt. %) of diarylethene compound and 0.27 g (90 wt. %) of polycarbonate (PC) or fluorinated polyethylene in a mixture of 1.2 g of chloroform and 1.2 g of trichloroethylene and stirring at room temperature for 6 hrs.

[2] = Dispersability of diarylethene compounds in fluorinated diacrylate monomer (TFBDA) or THF; type: physicochemical; set-up: key: ◯ = clear solution at RT; Δ = medium solubility; X = insoluble, phase separation and unclear solution; conditions: room temperature
Procedure: Solubilities of diarylethene compounds of the present invention and known diarylethene compounds were compared by dispersing in fluorinated diacrylate monomer (TFBDA) or THF.
The same diarylethene compounds used in Examples 6-7 and Comparative Examples 1-4 are used to obtain the desired composition. Each thin film composition was prepared by dissolving 0.01 g (10 wt. %) of diarylethene compound and 0.002 g (2 wt. %) of 1-hydroxycyclohexyl phenyl ketone as photopolymerization initiator in 0.088 g (88 wt. %) of TFBDA and stirring at room temperature for 30 min.

[3] = 90 wt. % fluorinated polyethylene (Xeonex 480)

SMILES: CC(=O)c1ccc2c(C3=C(c4c(C)sc5ccccc45)C(F)(F)C(F)(F)C3(F)F)c(C)sc2c1 [AMBTF6, 1-(6′-acetyl-2′-methylbenzo[b]thiophen-3′-yl)-2-(2″-methylbenzo[b]thiophen-3′-yl)hexafluorocyclopentene]
- Dispersability [1, 3]: X
- Dispersability ([1]; 90 wt. % polycarbonate (PC)): X
- Dispersability ([2]; 10 wt. % diarylethene in TFBDA): Δ
- Dispersability ([2]; solvent THF): ◯

SMILES: Cc1sc2ccccc2c1C1=C(c2c(C)sc3ccccc23)C(F)(F)C(F)(F)C1(F)F [BTF6, 1,2-bis(2-methylbenzo[b]thiophen-3′-yl)hexafluorocyclopentene]
- Dispersability [1, 3]: X
- Dispersability ([1]; 90 wt. % polycarbonate (PC)): ◯
- Dispersability ([2]; 10 wt. % diarylethene in TFBDA): X

SMILES: Cc1sc2cc(-c3cc(-c4ccccc4)on3)ccc2c1C1=C(c2c(C)sc3cc(-c4cc(-c5ccccc5)on4)ccc23)C(F)(F)C(F)(F)C1(F)F [DPIMBTF6, di(6′-phenylisoxazol-2′-methylbenzo[b]thiophen-3′-yl)hexafluorocyclopentene]
- Dispersability ([2]; 10 wt. % diarylethene in TFBDA): ◯

SMILES: Cc1sc2ccccc2c1C1=C(c2c(C)sc3cc(-c4cc(CO)on4)ccc23)C(F)(F)C(F)(F)C1(F)F [IMBTF6, 1-(6′-(5-hydroxymethylisoxazol)-2′-methylbenzo[b]thiophen-3′-yl)-2-(2″-methylbenzo[b]thiophen-3′-yl)hexafluorocyclopentene]
- Dispersability ([2]; 10 wt. % diarylethene in TFBDA): X
- Dispersability ([2]; solvent THF): ◯

SMILES: Cc1sc2ccccc2c1C1=C(c2c(C)sc3cc(-c4cc(-c5ccccc5)on4)ccc23)C(F)(F)C(F)(F)C1(F)F [PIMBTF6, 1-(6′-(5-phenylisoxazol)-2′-methylbenzo[b]thiophen-3′-yl)-2-(2″-methylbenzo[b]thiophen-3′-yl)hexafluorocyclopentene]
- Dispersability [1, 3]: Δ
- Dispersability ([1]; 90 wt. % polycarbonate (PC)): ◯
- Dispersability ([2]; 10 wt. % diarylethene in TFBDA): ◯
- Dispersability ([2]; solvent THF): ◯
